Measured values published in publication PMC11532403 (Signal Transduction and Targeted Therapy, 2024).
Like-named read-outs stand apart in the source and are kept apart here.

Experiment: Phase 1 trial: plasma pharmacokinetics
Assay type: in vivo
Details: human; for AUC(0-t): read-out: AUC0–12 h mean; for AUC(0-inf): read-out: AUCINF_obs mean; for Cmax: read-out: Cmax mean; for MRT inf: read-out: MRTINF_obs mean; for half-life: read-out: T1/2 mean (converted); for Tmax: read-out: Tmax mean
From the text: Serial plasma samples were also collected in each patient after the first dose and during multiple-dose administration on Cycle 1 Day 28.

[1] = 20 mg, Cycle 1 Day 1, 20 mg BID (n = 1)
[2] = 20 mg, Cycle 1 Day 1, 20 mg QD (n = 1)
[3] = 40 mg, Cycle 1 Day 1, 40 mg BID (n = 3)
[4] = 80 mg, Cycle 1 Day 1, 80 mg BID (n = 3)
[5] = 120 mg, Cycle 1 Day 1, 120 mg BID (n = 3)
[6] = 160 mg, Cycle 1 Day 1, 160 mg BID (n = 23)
[7] = 160 mg, Cycle 1 Day 28, 160 mg BID (n = 15)
[8] = 200 mg, Cycle 1 Day 28, 200 mg BID (n = 5)
[9] = oral, 20 mg, Cycle 1 Day 28, 20 mg BID (n = 1)

Question: Which AUC(0-t) [1] does the source give for `COc1ccc(CN2C3CC2CN(c2ccc(-c4cc(N5CC(C)(O)C5)cn5ncc(C#N)c45)cn2)C3)cn1` [SY-5007, 6-(3-hydroxy-3-methylazetidin-1-yl)-4-(6-(6-((6-methoxypyridin-3-yl)methyl)-3,6-diazabicyclo[3.1.1]heptan-3-yl)pyridin-3-yl)pyrazolo[1,5-a]pyridine-3-carbonitrile] here?
Answer: 1580 ng·h/mL

Question: And the AUC(0-inf) [1]?
Answer: 3830 ng·h/mL

Question: And the Cmax [1]?
Answer: 214 ng/mL

Question: And the MRT inf [1]?
Answer: 16.7 h

Question: And the half-life [1]?
Answer: 12.1 h

Question: And the Tmax [1]?
Answer: 4 h

Question: And the AUC(0-t) [2]?
Answer: 2230 ng·h/mL

Question: And the AUC(0-inf) [2]?
Answer: 2410 ng·h/mL

Question: And the Cmax [2]?
Answer: 391 ng/mL

Question: And the MRT inf [2]?
Answer: 7.7 h

Question: And the half-life [2]?
Answer: 6.8 h

Question: And the Tmax [2]?
Answer: 1 h

Question: And the AUC(0-t) [3]?
Answer: 2720 ng·h/mL

Question: What about the AUC(0-inf) [3] of the same compound?
Answer: 3760 ng·h/mL

Question: And the Cmax [3]?
Answer: 714 ng/mL

Question: What about the MRT inf [3] of the same compound?
Answer: 8.9 h

Question: What about the half-life [3] of the same compound?
Answer: 8.7 h

Question: And the Tmax [3]?
Answer: 0.5 h

Question: And the AUC(0-t) [4]?
Answer: 5150 ng·h/mL

Question: What about the AUC(0-inf) [4] of the same compound?
Answer: 7220 ng·h/mL

Question: What about the Cmax [4] of the same compound?
Answer: 1450 ng/mL

Question: What about the MRT inf [4] of the same compound?
Answer: 12.4 h

Question: What about the half-life [4] of the same compound?
Answer: 37.8 h

Question: And the Tmax [4]?
Answer: 0.5 h

Question: What about the AUC(0-t) [5] of the same compound?
Answer: 9270 ng·h/mL

Question: And the AUC(0-inf) [5]?
Answer: 14100 ng·h/mL

Question: And the Cmax [5]?
Answer: 2470 ng/mL

Question: And the MRT inf [5]?
Answer: 11.6 h

Question: What about the half-life [5] of the same compound?
Answer: 44.4 h

Question: And the Tmax [5]?
Answer: 0.5 h

Question: And the AUC(0-t) [6]?
Answer: 16700 ng·h/mL

Question: What about the AUC(0-inf) [6] of the same compound?
Answer: 21300 ng·h/mL

Question: What about the Cmax [6] of the same compound?
Answer: 3470 ng/mL

Question: And the MRT inf [6]?
Answer: 8.2 h

Question: And the half-life [6]?
Answer: 10.8 h

Question: What about the Tmax [6] of the same compound?
Answer: 1 h

Question: And the AUC(0-t) [7]?
Answer: 36800 ng·h/mL

Question: And the AUC(0-inf) [7]?
Answer: 67200 ng·h/mL

Question: What about the Cmax [7] of the same compound?
Answer: 4730 ng/mL

Question: And the MRT inf [7]?
Answer: 13.9 h

Question: What about the half-life [7] of the same compound?
Answer: 9 h

Question: And the Tmax [7]?
Answer: 2 h

Question: What about the AUC(0-t) [8] of the same compound?
Answer: 41100 ng·h/mL

Question: What about the AUC(0-inf) [8] of the same compound?
Answer: 63700 ng·h/mL

Question: And the Cmax [8]?
Answer: 5520 ng/mL

Question: What about the MRT inf [8] of the same compound?
Answer: 10.8 h

Question: And the half-life [8]?
Answer: 7 h

Question: What about the Tmax [8] of the same compound?
Answer: 2 h

Question: And the AUC(0-t) [9]?
Answer: 2940 ng·h/mL

Question: What about the AUC(0-inf) [9] of the same compound?
Answer: 4020 ng·h/mL
